# In publication PMC10067442, “In vivo quantitative high-throughput screening for drug discovery and comparative toxicology” (Disease Models & Mechanisms, 2023):
# “Also recorded” adds a separate entry of the source. Structures can show the parent of a compound that is named as a salt. Residues, ends and D or L forms follow the SMILES beside them. *: point of attachment. Cbz = O=C(OCc1ccccc1)*
# Columns and labels:
# Assay type in all cases: in vivo, Caenorhabditis elegans
# C. elegans strain PE254 [1] = assay: Follow-up 11-point re-test, C. elegans LSC viability; settings: 11-point titration, day 7, GFP area and worm number
# Protocol: C. elegans strain PE254 were collected from six NGM plates and washed. […] Assay-ready plates were prepared as above with an 11-point, 1:3 titration of 96 compounds identified as active from the qHTS screen based on curve classification and maximum response. […] Data were normalized as above, and concentration–response curves were fit in Prism with nonlinear regression log(agonist) versus response–variable slope (four parameters) fit.
# C. elegans strain PE254 [2] = assay: C. elegans LSC qHTS viability assay, Anti-Infectives library primary screen (BG-fed, 384-well); settings: for activity on C. elegans viability in primary qHTS (in words): seven-point titration
# Protocol: Levamisole, ivermectin and albendazole were purchased from Sigma-Aldrich. Stock solutions of all compounds were prepared at 10 mM in DMSO, and ivermectin was diluted to a 10 µM working dilution in DMSO. […] Of these, 284 (38%) are approved for clinical use in the United States, 32 (4%) were previously marketed for use in the United States, and 62 (8%) are used clinically outside of the United States. […] DMSO stock solutions of were arrayed in Echo-qualified 384-well cyclic olefin copolymer plates (Labcyte) in qHTS inter-plate dilution with seven concentrations, 1:5 dilution, resulting in a final concentration range of 2.5–20 mM high concentration titrated to 160 nM to 1.28 µM low concentration ([Yasgar et al., 2008]). ‘Assay-ready’ plates were prepared in 384-well uClear microtiter plates (Greiner BioOne), with compounds acoustically dispensed at 250 nl per well with an Echo 555 in the above inter-plate titration array. Two plates with DMSO added across the compound field at the same volume were prepared as screening controls (‘uniformity plates’). DMSO vehicle control was added to every well of column 1, and levamisole cytotoxicity control was added at a high concentration of 10 mM in wells 1–8 and titrated 1:3, starting at a high concentration of 10 mM to 4.57 µM in wells 9–16 of column 2 of every plate. Additionally, ivermectin, levamisol and albendazole were plated as internal controls on one assay plate in 16-point, 1:2 titration down six replicate columns per compound, starting at a high concentration of 10 µM (ivermectin) or 10 mM (levamisole and albendazole). Assay-ready plates were sealed and frozen at −80°C until use.
# C. elegans strain PE254 were collected from 12 NGM plates as above, transferred to 250 ml S medium supplemented with OP50 E. coli pellet collected from 2 l overnight culture, and grown for 5 days at 21°C with vigorous shaking in an Incu-Shaker Mini Shaking Incubator (Benchmark Scientific, Inc.). Eggs were axenized as above and hatched overnight in M9 buffer at 21°C and shaken at 65 rpm. Assay ready plates were thawed and allowed to equilibrate to ambient temperature. BGs in S medium (30 µl/well) at an OD600=0.85 were manually added across plates with a Capp pipette. Synchronized L1 worms from above were collected, diluted and plated at ten worms/30 µl/well with a Capp pipette into assay-ready microtiter plates pre-plated with BGs and compounds (240-fold dilution). […] No ethical approval or guidance is needed for working with nematodes.
# Data from the Anti-Infectives screen were normalized by plate to corresponding intra-plate controls as previously described ([Inglese et al., 2006]). Assay statistics were calculated using the same respective controls. Total object ‘GFP’ area (µm^2) and number of worms were normalized to the average signal of DMSO-treated wells as zero percent neutral control, and the average signal of 41.7 µM levamisole-treated wells as −100% activity. In-house software was used to fit the resulting inter-plate titration data to the standard Hill equation, and concentration–response curves were classified by activity as previously described ([Southall et al., 2009]). Curve fits assignments of −1.1, −1.2, −2.1, −2.2 and −3 were considered active and visually confirmed.
# C. elegans strain PE254 [3] = assay: Life-stage distribution analysis by COPAS flow cytometry after 7-day treatment; settings: 7-day treatment at ∼EC75-80, mixed population of 2000 worms/well
# Protocol: After 7 days of compound treatment in six-well culture plates seeded with a mixed population of 2000 C. elegans strain PE254, a life-stage distribution analysis was determined by TOF and EC using the COPAS FP BioSorter, followed by bulk collection in a 50 ml conical tube for use in proteomics studies.
# C. elegans strain PE254 [4] = assay: 384-well LSC C. elegans viability assay, life-stage sorted worms on BGs or OP50 live bacteria (assay development); settings: all life stages grown on BGs, by day 1; read-out: half-maximal effective concentration (EC50)
# Protocol: Strain PE254 worms were collected from eight NGM plates as above. The mixed population of C. elegans was resuspended in 30 ml 1× S basal buffer and plated at ten GFP worms per well of each life stage into respective wells of 384-well uClear microtiter plates with the COPAS biosorter run with the calibration protocol and settings from above. E. coli BGs diluted to OD600=0.6 or OP50 live bacteria diluted to OD600=0.05, 0.10, 0.15 or 0.2 in S medium were added to respective plates at 30 μl per well manually with a Capp pipette (BioVentures, Inc.). […] Plates were covered with a Breath-Easy seal (Thermo Fisher Scientific) and weighted metal lids with gas exchange pores (Fujifilm Wako Automation Corp.). Worms were grown in the presence of compound or DMSO for 7 days at 21°C and 65 rpm in an Incu-Shaker (Benchmark Scientific). Worms were imaged every 24–72 h on an Acumen eX3 laser scanning cytometer (STP Labtech). Plates were read with default reader settings, with scan 1 488 nm laser, green (FL-2) detection channel, 400 voltage, sensitivity of 2 and triggered in the green PMT. Green objects detected by the reader were identified as worms based on the filtered FL-2 object parameters perimeter (100-2200), area (1000-180,000), and peak intensity (150-1500). Viability was monitored as an increase in GFP fluorescence quantified as total number and total object area (µm^2) of FL-2 filtered objects per well. LSC data were collected using cellista 4 (version 4.3.4.0, STP Labtech).
# Concentration–response curves for average total filtered FL-2 object area (‘GFP area’) and total filtered FL-2 number of objects (‘number of worms’) for each respective compound were fit with the nonlinear regression log (agonist) versus response–variable slope (four parameters) algorithm in Prism (GraphPad Software). Hillslope and/or EC50 constraints were applied as needed to all life stages per compound across the 7-day time course, and EC50 values were calculated. […] (3) [drawing 3] where σ is the mean signal and µ is the standard deviation for the treated (p) or neutral (n) controls.
# [5] = Caenorhabditis elegans, Fig. 3D, read-out: qHTS potency based on GFP area
# [6] = Caenorhabditis elegans, Fig. 3D, read-out: qHTS potency based on worm number
compound,measurement,setting,value
"CC(=O)OC[C@H]1O[C@@H]([S-])[C@H](OC(C)=O)[C@@H](OC(C)=O)[C@@H]1OC(C)=O.CCP(CC)CC.[Au+] [Auranofin, auranofin]",activity on C. elegans viability in follow-up (in words),C. elegans strain PE254 [1],best activity; also recorded: potent and/or efficacious toxicity
O=C(NO)c1cccc(C(=O)NCCc2ccccc2)c1 [BRD73954],activity on C. elegans viability in primary qHTS (in words),C. elegans strain PE254 [2]; GFP area,inactive
CC(C)C[C@H](NC(=O)[C@H](Cc1ccccc1)NC(=O)c1cnccn1)B(O)O [Bortezomib],EC50,C. elegans strain PE254 [2]; [5],888 nM
same,EC50,C. elegans strain PE254 [2]; [6],592 nM
same,effect on life stage viability (in words),C. elegans strain PE254 [3],potent larval-stage depletion
same,effect on life stage viability (in words),C. elegans strain PE254 [3]; listed as 5,affecting life-stage progression or number
Cc1noc2c1-c1ccccc1C(c1ccc(Cl)cc1)=N[C@H]2CC(N)=O [CPI-0610],activity on C. elegans viability in primary qHTS (in words),C. elegans strain PE254 [2]; GFP area,Active
CCCC[C@@H](C=O)NC(=O)[C@H](CC(C)C)NC(=O)OCc1ccccc1 [Calpeptin],activity on C. elegans viability in primary qHTS (in words),C. elegans strain PE254 [2]; GFP area,Inactive
CC(C)C[C@H](NC(=O)[C@H](CCc1ccccc1)NC(=O)CN1CCOCC1)C(=O)N[C@@H](Cc1ccccc1)C(=O)N[C@@H](CC(C)C)C(=O)[C@@]1(C)CO1 [Carfilzomib],activity on C. elegans viability in primary qHTS (in words),C. elegans strain PE254 [2]; GFP area,Inactive
CC(C)C[C@H](NC(=O)[C@@H](NC(=O)c1cccc(-c2ccccc2)n1)[C@@H](C)O)B(O)O [Delanzomib],EC50,C. elegans strain PE254 [2]; [5],405 nM
same,EC50,C. elegans strain PE254 [2]; [6],311 nM
CC[C@H](C)[C@H](NC(=O)[C@H]([C@@H](C)CC)N(C)C(C)=O)C(=O)N[C@H](C(=O)N[C@@H](CC(C)C)C(=O)[C@@]1(C)CO1)[C@@H](C)O [Epoxomicin],activity on C. elegans viability in primary qHTS (in words),C. elegans strain PE254 [2]; GFP area,Inactive
CC(=O)N1c2ccc(-c3ccc(C(=O)O)cc3)cc2[C@H](Nc2ccc(Cl)cc2)C[C@@H]1C [GSK1324726A],activity on C. elegans viability in primary qHTS (in words),C. elegans strain PE254 [2]; GFP area,Active
COc1cc2c(cc1-c1c(C)noc1C)ncc1[nH]c(=O)n([C@H](C)c3ccccn3)c12 [I-BET151],activity on C. elegans viability in primary qHTS (in words),C. elegans strain PE254 [2]; GFP area,inactive
CCNC(=O)C[C@@H]1N=C(c2ccc(Cl)cc2)c2cc(OC)ccc2-n2c(C)nnc21 [I-BET762],activity on C. elegans viability in primary qHTS (in words),C. elegans strain PE254 [2]; GFP area,Active
CC(C)C[C@H](NC(=O)CNC(=O)c1cc(Cl)ccc1Cl)B1OC(=O)C(CC(=O)O)(CC(=O)O)O1 [Ixazomib citrate],EC50,C. elegans strain PE254 [2]; [5],411 nM
same,EC50,C. elegans strain PE254 [2]; [6],382 nM
CC(C)C[C@H](NC(=O)CNC(=O)c1cc(Cl)ccc1Cl)B(O)O [Ixazomib],EC50,C. elegans strain PE254 [2]; [5],1130 nM
same,EC50,C. elegans strain PE254 [2]; [6],863 nM
Cc1sc2c(c1C)C(c1ccc(Cl)cc1)=N[C@@H](CC(=O)OC(C)(C)C)c1nnc(C)n1-2 [JQ1],activity on C. elegans viability in primary qHTS (in words),C. elegans strain PE254 [2]; GFP area,Active
O=C(Oc1ccc([N+](=O)[O-])cc1)N1CCC(C(O)(c2ccc3c(c2)OCO3)c2ccc3c(c2)OCO3)CC1 [JZL-184],activity on C. elegans viability in follow-up (in words),C. elegans strain PE254 [1],moderately active
same,activity on C. elegans viability in primary qHTS (in words),C. elegans strain PE254 [2]; GFP area,low potency and efficacy
C[C@H](NC(=O)[C@@H](O)c1cc(F)cc(F)c1)C(=O)N[C@@H]1C(=O)N(C)c2ccccc2-c2ccccc21 [LY-411575],effect on life stage viability (in words),C. elegans strain PE254 [3],affecting life-stage progression or number
CC(C)C[C@@H](C=O)NC(=O)[C@H](CC(C)C)NC(=O)[C@H](CC(C)C)NC(=O)OCc1ccccc1 [MG-132] (Cbz-Leu-Leu-Leu-aldehyde),activity on C. elegans viability in primary qHTS (in words),C. elegans strain PE254 [2]; GFP area,Inactive
same,effect on life stage viability (in words),C. elegans strain PE254 [3],no discernable effect
Cc1sc2c(c1C)C(c1ccc(Cl)cc1)=N[C@@H](CC(=O)Nc1ccc(O)cc1)c1nnc(C)n1-2 [OTX-015],activity on C. elegans viability in primary qHTS (in words),C. elegans strain PE254 [2]; GFP area,inactive
COC[C@H](NC(=O)c1cnc(C)s1)C(=O)N[C@@H](COC)C(=O)N[C@@H](Cc1ccccc1)C(=O)[C@@]1(C)CO1 [Oprozomib],activity on C. elegans viability in primary qHTS (in words),C. elegans strain PE254 [2]; GFP area,Inactive
O=C(C1CCCCC1)N1CC(=O)N2CCc3ccccc3C2C1 (centres unmarked) [Praziquantel],curve classification (CC),"C. elegans strain PE254 [2]; GFP area, day 7",4
same,activity on C. elegans viability in primary qHTS (in words),C. elegans strain PE254 [2]; GFP area,not detected; also recorded: not identified as active
same,effect on life stage viability (in words),C. elegans strain PE254 [3],no effect
"COC(=O)[C@]1(C)CC[C@]2(C)CC[C@]3(C)C4=CC=C5C(=CC(=O)C(O)=C5C)[C@]4(C)CC[C@@]3(C)[C@@H]2C1 [Pristimerin, pristimerin]",activity on C. elegans viability in follow-up (in words),C. elegans strain PE254 [1],potent and/or efficacious toxicity
Cc1cc(/C=C/c2ccc3cc(N(C)C)ccc3[n+]2C)c(C)n1-c1ccccc1 [Pyrvinium pamoate],activity on C. elegans viability in primary qHTS (in words),C. elegans strain PE254 [2]; GFP area,active
O=C(/C=C\n1cnc(-c2cc(C(F)(F)F)cc(C(F)(F)F)c2)n1)NNc1cnccn1 [Selinexor],activity on C. elegans viability in follow-up (in words),C. elegans strain PE254 [1],moderately active
same,activity on C. elegans viability in primary qHTS (in words),C. elegans strain PE254 [2]; GFP area,low potency and efficacy
same,effect on life stage viability (in words),C. elegans strain PE254 [3],inactive
Cn1cnc2c(F)c(Nc3ccc(Br)cc3Cl)c(C(=O)NOCCO)cc21 [Selumetinib],effect on life stage viability (in words),C. elegans strain PE254 [3],no discernable effect
same,effect on life stage viability (in words),C. elegans strain PE254 [3]; listed as 10,inactive
CC(=O)Nc1cccc(-n2c(=O)n(C3CC3)c(=O)c3c(Nc4ccc(I)cc4F)n(C)c(=O)c(C)c32)c1 [Trametinib],effect on life stage viability (in words),C. elegans strain PE254 [3],potent larval-stage depletion
same,effect on life stage viability (in words),C. elegans strain PE254 [3]; listed as 9,affecting life-stage progression or number
"CC(C)(C)c1cc(C=C(C#N)C#N)cc(C(C)(C)C)c1O [Tyrphostin A9, tyrphostin A9]",activity on C. elegans viability in follow-up (in words),C. elegans strain PE254 [1],best activity; also recorded: potent and/or efficacious toxicity
O=[N+]([O-])c1ccc(S(=O)(=O)N2CCN(c3ccnc4cc(Cl)ccc34)CC2)c([N+](=O)[O-])c1 [VR23],activity on C. elegans viability in primary qHTS (in words),C. elegans strain PE254 [2]; GFP area,Inactive
"O=C(/C=C\n1cnc(-c2cc(C(F)(F)F)cc(C(F)(F)F)c2)n1)NNc1ccccn1 [Verdinexor, verdinexor]",activity on C. elegans viability in follow-up (in words),C. elegans strain PE254 [1],moderately active
same,activity on C. elegans viability in primary qHTS (in words),C. elegans strain PE254 [2]; GFP area,low potency and efficacy
C=CC(=O)N1C/C(=C\c2ccc([N+](=O)[O-])cc2)C(=O)/C(=C/c2ccc([N+](=O)[O-])cc2)C1 [b-AP15],activity on C. elegans viability in primary qHTS (in words),C. elegans strain PE254 [2]; GFP area,Inactive
Ivermectin,activity on C. elegans viability in primary qHTS (in words),C. elegans strain PE254 [2]; GFP area,active
same,EC50,"C. elegans strain PE254 [2]; treatment day 2, internal control, 16-point titration, six replicate wells, read-out: Treatment day, EC50 (GFP area)",17 ± 3.9 nM
same,EC50,"C. elegans strain PE254 [2]; treatment day 3, internal control, 16-point titration, six replicate wells, read-out: Treatment day, EC50 (GFP area)",16.9 ± 2.3 nM
same,EC50,"C. elegans strain PE254 [2]; treatment day 4, internal control, 16-point titration, six replicate wells, read-out: Treatment day, EC50 (GFP area)",14 ± 1.7 nM
same,EC50,"C. elegans strain PE254 [2]; treatment day 5, internal control, 16-point titration, six replicate wells, read-out: Treatment day, EC50 (GFP area)",14.6 ± 1.1 nM
same,EC50,"C. elegans strain PE254 [2]; treatment day 6, internal control, 16-point titration, six replicate wells, read-out: Treatment day, EC50 (GFP area)",13.6 ± 1.1 nM
same,EC50,"C. elegans strain PE254 [2]; treatment day 7, internal control, 16-point titration, six replicate wells, read-out: Treatment day, EC50 (GFP area)",12.4 ± 1.2 nM
same,EC50,C. elegans strain PE254 [4],~1 nM
oligomycin A,activity on C. elegans viability in follow-up (in words),C. elegans strain PE254 [1],best activity; also recorded: potent and/or efficacious toxicity
